For this data set the following is noted: Crystal.

SMILES strings stand for the structures. Numbers after ± are expanded uncertainties.

As a reminder, the mass density is mass per unit of volume. Regarding `Cc1ncc(COP(=O)(O)O)c(C=O)c1O.O` [pyridoxal 5-phosphate hydrate], the mass density (293 K, 101.33 kPa, Pycnometric method) is on record as 1536 ± 5 kg/m3. In addition, for the setting “DTA”, the Normal melting temperature was found to be 148.56 ± 0.5 °C.
